US20240398989A1, “METHODS AND COMPOSITIONS FOR DIAGNOSIS AND TREATMENT OF METABOLIC DISORDERS” (The Broad Institute, Inc., priority 2021, published 2024)

System: primary human hepatocytes (PHH)
Assay: LipocyteProfiler of drug-treated primary human hepatocytes
Assay type: cell-based
Conditions: for appearance of the cytoskeleton, Golgi and plasma membrane (AGP Texture_AngularSecondMoment): 5 mM metformin for 24h vs control, p=9.96e-08
Protocol: Primary human hepatocytes (PHH) were purchased from BioIVT. Donor lot YNZ was used in this study. PHH were thawed and immediately resuspended in CP media (BioIVT) supplemented with torpedo antibiotic (BioIVT). Cell count and viability were assessed by trypan blue exclusion test prior to plating. […] Four hours after plating, media was replaced with fresh CP media. After 24 h, media was replaced with fresh CP media or CP media containing oleic acid (0.3 mM) or metformin (5 mM). Hepatocytes were incubated for an additional 24 h prior to processing. Human primary AMSCs and PHH were plated in 96-well CellCarrier plates (Perkinelmer #6005550). […] Primary human hepatocytes were stained after 48 h in culture, and 24h following treatment with oleic acid or metformin. On the respective day of the assay, cell culture media was removed and replaced by 0.5 μM Mitotracker staining solution (1 mM MitoTracker Deep Red stock (Invitrogen #M22426) diluted in culture media) to each well followed by 30 minutes incubation at 37° C.' protected from light. […] PFA was removed and cells were washed once with Hank's Balanced Salt Solution (1×), HBSS (Gibco #14025076). […] Finally, staining solution was removed and cells were washed three times with HBSS. Cells were imaged using a Opera Phenix High content screening system. […] Prior to processing, flat field illumination correction was performed using functions generated from the median intensity across each plate. Nuclei were identified using the DAPI stain and then expanded to identify whole cells using the Phalloidin/WGA and BODIPY stains. Regions of cytoplasm were then determined by removing the Nuclei from the Cell segmentations. Speckles of BODIPY staining were enhanced to assist in detection of small and large individual Lipid objects. For each object set measurements were collected representing size, shape, intensity, granularity, texture, colocalization and distance to neighbouring objects. After LipocyteProfiler (LP) feature extraction data was filtered by applying automated and manual quality control steps. […] Second, every field was assessed visually and fields that were corrupted by experimental induced technical artifacts were removed. Furthermore, blocklisted features (Way, Gregory (2019): Blocklist Features-Cell Profiler. figshare. […] After filtering data were normalised per plate using a robust scaling approach (Pedregosa et al. 2011) that subtracts the median from each variable and divides it by the interquartile range. Individual wells were aggregated for downstream analysis by cell depot and day of differentiation.

[1] = PHH metformin treatment (5 mM, 24h), t-test

Which results are given for `CN(C)C(=N)N=C(N)N` [metformin]?
Nuclei_Intensity_IntegratedIntensityEdge_AGP t-statistics [1]: −8.2E+00; Nuclei_Intensity_IntegratedIntensityEdge_DNA t-statistics [1]: −1.8E+01; Nuclei_Intensity_IntegratedIntensityEdge_Mito t-statistics [1]: 5.3E+00; Nuclei_Intensity_IntegratedIntensity_DNA t-statistics [1]: −1.3E+01; Nuclei_Intensity_IntegratedIntensity_Lipid t-statistics [1]: −5.7E+00; Nuclei_Intensity_IntegratedIntensity_Mito t-statistics [1]: 7.3E+00; Nuclei_Intensity_LowerQuartileIntensity_AGP t-statistics [1]: −1.4E+01; Nuclei_Intensity_LowerQuartileIntensity_DNA t-statistics [1]: −1.9E+01; Nuclei_Intensity_LowerQuartileIntensity_Lipid t-statistics [1]: −5.4E+00; Nuclei_Intensity_LowerQuartileIntensity_Mito t-statistics [1]: 7.7E+00; Nuclei_Intensity_MADIntensity_AGP t-statistics [1]: −2.2E+01; Nuclei_Intensity_MADIntensity_DNA t-statistics [1]: 4.7E+00; Nuclei_Intensity_MADIntensity_Mito t-statistics [1]: 1.2E+01; Nuclei_Intensity_MassDisplacement_AGP t-statistics [1]: 1.9E+01; Nuclei_Intensity_MassDisplacement_DNA t-statistics [1]: 6.2E+01; Nuclei_Intensity_MassDisplacement_Lipid t-statistics [1]: 2.6E+01; Nuclei_Intensity_MassDisplacement_Mito t-statistics [1]: 1.2E+01; Nuclei_Intensity_MaxIntensityEdge_AGP t-statistics [1]: −8.0E+00; Nuclei_Intensity_MaxIntensityEdge_DNA t-statistics [1]: −1.3E+01; Nuclei_Intensity_MaxIntensityEdge_Mito t-statistics [1]: 3.3E+00; Nuclei_Intensity_MaxIntensity_AGP t-statistics [1]: −1.6E+01; Nuclei_Intensity_MaxIntensity_Mito t-statistics [1]: 3.5E+00; Nuclei_Intensity_MeanIntensityEdge_AGP t-statistics [1]: −8.2E+00; Nuclei_Intensity_MeanIntensityEdge_DNA t-statistics [1]: −1.6E+01; Nuclei_Intensity_MeanIntensityEdge_Mito t-statistics [1]: 5.2E+00; Nuclei_Intensity_MeanIntensity_AGP t-statistics [1]: −1.6E+01; Nuclei_Intensity_MeanIntensity_DNA t-statistics [1]: −9.5E+00; Nuclei_Intensity_MeanIntensity_Lipid t-statistics [1]: −4.6E+00; Nuclei_Intensity_MeanIntensity_Mito t-statistics [1]: 7.8E+00; Nuclei_Intensity_MedianIntensity_AGP t-statistics [1]: −1.7E+01; Nuclei_Intensity_MedianIntensity_DNA t-statistics [1]: −1.3E+01; Nuclei_Intensity_MedianIntensity_Lipid t-statistics [1]: −4.5E+00; Nuclei_Intensity_MedianIntensity_Mito t-statistics [1]: 8.9E+00; Nuclei_Intensity_MinIntensityEdge_AGP t-statistics [1]: −7.5E+00; Nuclei_Intensity_MinIntensityEdge_DNA t-statistics [1]: −1.6E+01; Nuclei_Intensity_MinIntensityEdge_Lipid t-statistics [1]: −8.5E+00; Nuclei_Intensity_MinIntensityEdge_Mito t-statistics [1]: 3.0E+00; Nuclei_Intensity_MinIntensity_AGP t-statistics [1]: −7.8E+00; Nuclei_Intensity_MinIntensity_DNA t-statistics [1]: −1.6E+01; Nuclei_Intensity_MinIntensity_Lipid t-statistics [1]: −8.6E+00; Nuclei_Intensity_MinIntensity_Mito t-statistics [1]: 4.5E+00; Nuclei_Intensity_StdIntensityEdge_AGP t-statistics [1]: −7.5E+00; Nuclei_Intensity_StdIntensityEdge_DNA t-statistics [1]: −1.0E+01; Nuclei_Intensity_StdIntensityEdge_Lipid t-statistics [1]: 6.3E+00; Nuclei_Intensity_StdIntensityEdge_Mito t-statistics [1]: 5.2E+00; Nuclei_Intensity_StdIntensity_AGP t-statistics [1]: −1.8E+01; Nuclei_Intensity_StdIntensity_DNA t-statistics [1]: 3.5E+00; Nuclei_Intensity_StdIntensity_Mito t-statistics [1]: 6.1E+00; Nuclei_Intensity_UpperQuartileIntensity_AGP t-statistics [1]: −1.8E+01; Nuclei_Intensity_UpperQuartileIntensity_DNA t-statistics [1]: −5.7E+00; Nuclei_Intensity_UpperQuartileIntensity_Lipid t-statistics [1]: −4.4E+00; Nuclei_Intensity_UpperQuartileIntensity_Mito t-statistics [1]: 8.5E+00; Nuclei_Location_CenterMassIntensity_Y_AGP t-statistics [1]: 4.1E+00; Nuclei_Location_CenterMassIntensity_Y_DNA t-statistics [1]: 4.2E+00; Nuclei_Location_CenterMassIntensity_Y_Lipid t-statistics [1]: 4.1E+00; Nuclei_Location_CenterMassIntensity_Y_Mito t-statistics [1]: 4.2E+00; Nuclei_Location_Center_Y t-statistics [1]: 4.2E+00; Nuclei_Location_MaxIntensity_Y_AGP t-statistics [1]: 4.1E+00; Nuclei_Location_MaxIntensity_Y_DNA t-statistics [1]: 4.2E+00; Nuclei_Location_MaxIntensity_Y_Lipid t-statistics [1]: 4.1E+00; Nuclei_Location_MaxIntensity_Y_Mito t-statistics [1]: 4.5E+00; Nuclei_Neighbors_AngleBetweenNeighbors_2 t-statistics [1]: −2.2E+01; Nuclei_Neighbors_FirstClosestDistance_2 t-statistics [1]: −3.5E+00; Nuclei_Neighbors_FirstClosestObjectNumber_2 t-statistics [1]: −1.2E+01; Nuclei_Neighbors_NumberOfNeighbors_2 t-statistics [1]: 1.9E+01; Nuclei_Neighbors_PercentTouching_2 t-statistics [1]: 2.0E+01; Nuclei_Neighbors_SecondClosestDistance_2 t-statistics [1]: 4.5E+00; Nuclei_Neighbors_SecondClosestObjectNumber_2 t-statistics [1]: −1.2E+01; Nuclei_Number_Object_Number t-statistics [1]: −1.2E+01; Nuclei_Radial Distribution_MeanFrac_Mito_3of4 t-statistics [1]: 2.6E+01; Nuclei_RadialDistribution_FracAtD_AGP_3of4 t-statistics [1]: −2.7E+01; Nuclei_RadialDistribution_FracAtD_DNA_2of4 t-statistics [1]: 3.0E+01; Nuclei_RadialDistribution_FracAtD_Lipid_1of4 t-statistics [1]: −1.2E+01; Nuclei_RadialDistribution_FracAtD_Mito_3of4 t-statistics [1]: 2.4E+01; Nuclei_RadialDistribution_MeanFrac_AGP_3of4 t-statistics [1]: −2.7E+01; Nuclei_RadialDistribution_MeanFrac_DNA_2of4 t-statistics [1]: 3.8E+01; Nuclei_RadialDistribution_MeanFrac_Lipid_2of4 t-statistics [1]: −7.9E+00; Nuclei_RadialDistribution_RadialCV_AGP_3of4 t-statistics [1]: 2.5E+01; Nuclei_RadialDistribution_RadialCV_DNA_3of4 t-statistics [1]: 9.7E+01; Nuclei_RadialDistribution_RadialCV_Lipid_3of4 t-statistics [1]: 2.2E+01; Nuclei_RadialDistribution_RadialCV_Mito_2of4 t-statistics [1]: 3.7E+01; Nuclei_Texture_AngularSecondMoment_AGP_10_02 t-statistics [1]: 1.2E+01; Nuclei_Texture_AngularSecondMoment_DNA_20_03 t-statistics [1]: 9.4E+00; Nuclei_Texture_AngularSecondMoment_Lipid_5_03 t-statistics [1]: 4.2E+00; Nuclei_Texture_AngularSecondMoment_Mito_5_02 t-statistics [1]: −1.8E+01; Nuclei_Texture_Contrast_AGP_10_03 t-statistics [1]: −1.8E+01; Nuclei_Texture_Contrast_DNA_5_01 t-statistics [1]: 5.8E+00; Nuclei_Texture_Contrast_Lipid_20_02 t-statistics [1]: 4.3E+00; Nuclei_Texture_Contrast_Mito_5_03 t-statistics [1]: 6.8E+00; Nuclei_Texture_Correlation_AGP_10_03 t-statistics [1]: 3.0E+01; Nuclei_Texture_Correlation_DNA_10_00 t-statistics [1]: −1.6E+01; Nuclei_Texture_Correlation_Lipid_5_03 t-statistics [1]: 2.3E+01; Nuclei_Texture_Correlation_Mito_5_02 t-statistics [1]: 1.5E+01; Nuclei_Texture_DifferenceEntropy_AGP_10_00 t-statistics [1]: −2.1E+01; Nuclei_Texture_DifferenceEntropy_DNA_10_03 t-statistics [1]: −8.0E+00; Nuclei_Texture_DifferenceEntropy_Lipid_20_01 t-statistics [1]: 8.2E+00; Nuclei_Texture_DifferenceEntropy_Mito_20_00 t-statistics [1]: 8.0E+00; Nuclei_Texture_DifferenceVariance_AGP_10_00 t-statistics [1]: 1.4E+01; Nuclei_Texture_DifferenceVariance_DNA_20_03 t-statistics [1]: 7.3E+00; Nuclei_Texture_DifferenceVariance_Lipid_20_00 t-statistics [1]: 5.6E+00; Nuclei_Texture_DifferenceVariance_Mito_10_00 t-statistics [1]: −8.1E+00; Nuclei_Texture_Entropy_AGP_5_00 t-statistics [1]: −1.7E+01; Nuclei_Texture_Entropy_DNA_10_03 t-statistics [1]: −7.7E+00; Nuclei_Texture_Entropy_Lipid_20_01 t-statistics [1]: 7.3E+00; Nuclei_Texture_Entropy_Mito_5_02 t-statistics [1]: 1.3E+01; Nuclei_Texture_InfoMeas1_AGP_10_03 t-statistics [1]: 2.6E+01; Nuclei_Texture_InfoMeas1_Lipid_20_03 t-statistics [1]: −8.6E+00; Nuclei_Texture_InfoMeas2_DNA_10_03 t-statistics [1]: −1.3E+01; Nuclei_Texture_InfoMeas2_Mito_5_01 t-statistics [1]: 1.3E+01; Nuclei_Texture_InverseDifferenceMoment_AGP_10_00 t-statistics [1]: 2.1E+01; Nuclei_Texture_InverseDifferenceMoment_DNA_20_03 t-statistics [1]: 1.5E+01; Nuclei_Texture_InverseDifferenceMoment_Lipid_20_00 t-statistics [1]: 7.5E+00; Nuclei_Texture_InverseDifferenceMoment_Mito_10_00 t-statistics [1]: −1.4E+01; Nuclei_Texture_SumAverage_AGP_10_00 t-statistics [1]: −1.8E+01; Nuclei_Texture_SumAverage_DNA_10_01 t-statistics [1]: −1.8E+01; Nuclei_Texture_SumAverage_Lipid_10_00 t-statistics [1]: −6.6E+00; Nuclei_Texture_SumAverage_Mito_20_00 t-statistics [1]: 8.5E+00; Nuclei_Texture_SumEntropy_AGP_5_00 t-statistics [1]: −1.9E+01; Nuclei_Texture_SumEntropy_DNA_10_03 t-statistics [1]: −7.8E+00; Nuclei_Texture_SumEntropy_Lipid_20_01 t-statistics [1]: 8.0E+00; Nuclei_Texture_SumEntropy_Mito_5_02 t-statistics [1]: 1.1E+01; Nuclei_Texture_SumVariance_AGP_10_03 t-statistics [1]: −1.7E+01; Nuclei_Texture_SumVariance_DNA_5_02 t-statistics [1]: 6.2E+00; Nuclei_Texture_SumVariance_Lipid_20_01 t-statistics [1]: 6.0E+00; Nuclei_Texture_SumVariance_Mito_5_02 t-statistics [1]: 7.3E+00; Nuclei_Texture_Variance_AGP_10_03 t-statistics [1]: −1.8E+01; Nuclei_Texture_Variance_DNA_5_00 t-statistics [1]: 5.8E+00; Nuclei_Texture_Variance_Lipid_20_00 t-statistics [1]: 4.7E+00; Nuclei_Texture_Variance_Mito_5_02 t-statistics [1]: 6.9E+00; BODIPY Texture Entropy (PHH, 5 mM metformin for 24h, p 6.98e-04): difference; mitochondrial membrane potential (Mito MeanIntensity) (PHH, 5 mM metformin for 24h, p 0.0104): increased; cell size (AreaShape MinorAxislength) (PHH, 5 mM metformin for 24h, p=3.11e-12): smaller; cell size (AreaShape Area) (PHH, 5 mM metformin for 24h, p=3.87e-11): smaller; lipid droplet number (LargeBODIPYObjects_Count) (PHH, 5 mM metformin for 24h, p=2.37e-07): reduced; lipid content (BODIPY MeanIntensity) (PHH, 5 mM metformin for 24h, p=6.11e-06): reduced; mitochondrial fusion (Mito Texture_angularSecondMoment, Mito Texture Entropy, Mito Texture_InfoMeas1) (PHH, 5 mM metformin for 24h, p=7.58e-05, p=6.66e-06, p=2.17e-12): increased; appearance of the cytoskeleton, Golgi and plasma membrane (AGP Texture_AngularSecondMoment) (PHH): less uniform; appearance of the cytoskeleton, Golgi and plasma membrane (AGP Texture_AngularSecondMoment) (PHH, listed as Metformin): reduced cytoskeletal randomness

Which “BODIPY Texture_AngularSecondMoment” value (PHH, 24h oleic acid (0.3 mM), p 7.21e-07) does the source give for `CCCCCCCC/C=C\CCCCCCCC(=O)O` [oleic acid] here?
Its value is “differences”.

What about the “lipid droplet number (LargeBODIPYObjects_Count)” value (PHH, 24h oleic acid (0.3 mM), p=2.3e-11) of the same compound?
The value was “increased”.

What about the “overall lipid content (BODIPY MeanIntensity)” value (PHH, 24h oleic acid (0.3 mM), p=1.21e-09) of the same compound?
The value was “increased”.

What about the “BODIPY Texture Entropy” value (PHH, 24h oleic acid (0.3 mM), p=2.56e-09) of the same compound?
The value was “differences”.
